Like-named read-outs stand apart in the source and are kept apart here.
Columns and labels:
AURKA (Aurora A) = target: T1, AURKA (Aurora A) (Homo sapiens, UniProt O14965); assay: Z'-LYTE SelectScreen biochemical kinase assay AURKA (Aurora A)
T1 sequence (O14965 1-403): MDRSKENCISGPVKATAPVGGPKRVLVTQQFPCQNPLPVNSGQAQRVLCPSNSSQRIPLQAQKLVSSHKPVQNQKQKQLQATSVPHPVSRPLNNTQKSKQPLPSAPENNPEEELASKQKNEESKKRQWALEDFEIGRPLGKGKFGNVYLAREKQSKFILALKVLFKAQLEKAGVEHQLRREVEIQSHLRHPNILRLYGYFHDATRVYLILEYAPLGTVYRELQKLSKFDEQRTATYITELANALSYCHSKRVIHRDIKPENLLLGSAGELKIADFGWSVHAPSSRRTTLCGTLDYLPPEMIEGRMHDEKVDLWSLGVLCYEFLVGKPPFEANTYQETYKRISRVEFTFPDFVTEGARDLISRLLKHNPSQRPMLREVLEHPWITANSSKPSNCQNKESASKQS
Description: (§1) Thermo Fisher Scientific SelectScreen™ Biochemical Kinase Profiling Service Z′-LYTE™ Screening Protocol and Assay Conditions Assay Theory
(§2) The […] biochemical assay employs a fluorescence-based, coupled-enzyme format and is based on the differential sensitivity of phosphorylated and non-phosphorylated peptides to proteolytic cleavage. The peptide substrate is labeled with two fluorophores—one at each end—that make up a FRET pair. In the primary reaction, the kinase transfers the gamma-phosphate of ATP to a single tyrosine, serine or threonine residue in a synthetic FRET-peptide. In the secondary reaction, a site-specific protease recognizes and cleaves non-phosphorylated FRET-peptides. Phosphorylation of FRET-peptides suppresses cleavage by the Development Reagent. Cleavage disrupts FRET between the donor (i.e., coumarin) and acceptor (i.e., fluorescein) fluorophores on the FRET-peptide, whereas uncleaved, phosphorylated FRET-peptides maintain FRET. A ratiometric method, which calculates the ratio (Emission Ratio=Coumarin emission (445 nm)/Fluorescein emission (520 nm)) of donor emission to acceptor emission after excitation of the donor fluorophore at 400 nm, is used to quantitate reaction progress, as shown in the equation below. A significant benefit of this ratiometric method for quantitating reaction progress is the elimination of well-to-well variations in FRET-peptide concentration and signal intensities. As a result, the assay yields very high Z′-factor values (>0.7) at a low percent phosphorylation. Both cleaved and uncleaved FRET-peptides contribute to the fluorescence signals and therefore to the Emission Ratio. The extent of phosphorylation of the FRET-peptide can be calculated from the Emission Ratio. The Emission Ratio will remain low if the FRET-peptide is phosphorylated (i.e., no kinase inhibition) and will be high if the FRET-peptide is non-phosphorylated (i.e., kinase inhibition).
(§3) The Test Compounds are screened in 1% DMSO (final) in the well. For 10 point titrations, 3-fold serial dilutions are conducted from the starting concentration of the customer's choosing.
(§4) All Peptide/Kinase Mixtures are diluted to a 2× working concentration in the appropriate Kinase Buffer (see section Kinase Specific Assay Conditions for a complete description).
(§5) All ATP Solutions are diluted to a 4× working concentration in Kinase Buffer (50 mM HEPES pH 7.5, 0.01% BRIJ-35, 10 mM MgCl2, 1 mM EGTA). ATP Km apparent is previously determined using a Z″-LYTE assay.
(§6) The Development Reagent is diluted in Development Buffer (see section Kinase-Specific Assay Conditions—Direct and Cascade for a complete description).
(§7) Bar-coded Corning, low volume NBS, black 384-well plate (Corning Cat. #4514) • 1. 100 nL—100× Test Compound in 100% DMSO • 2. 2.4 μL—Kinase buffer • 3. 5 μL—2× Peptide/Kinase Mixture • 4. 2.5 μL—4×ATP Solution • 5. 30—second plate shake • 6. 60—minute Kinase Reaction incubation at room temperature • 7. 5 μL—Development Reagent Solution • 8. 30—second plate shake • 9. 60—minute Development Reaction incubation at room temperature • 10. Read on fluorescence plate reader and analyze the data Z′-LYTE Assay Controls
(§8) SelectScreen Kinase Profiling Service uses XLfit from IDBS. The dose response curve is curve fit to model number 205 (sigmoidal dose-response model).
(§9) The 2×AURKA (Aurora A)/Ser/Thr 01 mixture is prepared in 50 mM HEPES pH 7.5, 0.01% BRIJ-35, 10 mM MgCl2, 1 mM EGTA. The final 10 μL Kinase Reaction consists of 0.91-8.56 ng AURKA (Aurora A) and 2 μM Ser/Thr 01 in 50 mM HEPES pH 7.5, 0.01% BRIJ-35, 10 mM MgCl2, 1 mM EGTA. After the 1 hour Kinase Reaction incubation, 5 μL of a 1:4096 dilution of Development Reagent A is added.

FGFR1 = FGFR1 (Homo sapiens, UniProt P11362); assay: Z'-LYTE SelectScreen biochemical kinase assay FGFR1
Description: as §1, §2, §3, §4, §5, §6, §7, §8
The 2×FGFR1/Tyr 04 mixture is prepared in 50 mM HEPES pH 7.5, 0.01% BRIJ-35, 10 mM MgCl2, 4 mM MnCl2, 1 mM EGTA, 2 mM DTT. The final 10 μL Kinase Reaction consists of 0.44-2.45 ng FGFR1 and 2 μM Tyr 04 in 50 mM HEPES pH 7.5, 0.01% BRIJ-35, 10 mM MgCl2, 2 mM MnCl2, 1 mM EGTA, 1 mM DTT. After the 1 hour Kinase Reaction incubation, 5 μL of a 1:64 dilution of Development Reagent B is added.

ABL1 = ABL1 (Homo sapiens, UniProt P00519); assay: Z'-LYTE SelectScreen biochemical kinase assay ABL1
Description: as §1, §2, §3, §4, §5, §6, §7, §8
as §9, with “2×ABL1/Tyr 02” for “2×AURKA (Aurora A)/Ser/Thr 01”, “0.29-1.26” for “0.91-8.56”, “ABL1” for “AURKA (Aurora A)”, “Tyr 02” for “Ser/Thr 01”, “1:128” for “1:4096”

[1] = 10 μmolar compound concentration, ATP at Km app, read-out: AURKA (Aurora A) inhibition
[2] = 10 μmolar compound concentration, ATP at Km app, read-out: FGFR1 inhibition
[3] = 10 μmolar compound concentration, ATP at Km app, read-out: ABL1 inhibition
[4] = read-out: % Inhibition mean AURKA (Aurora A)
[5] = read-out: % Inhibition mean FGFR1
[6] = read-out: % Inhibition mean ABL1

Chain of FGFR1 (P11362 22-822): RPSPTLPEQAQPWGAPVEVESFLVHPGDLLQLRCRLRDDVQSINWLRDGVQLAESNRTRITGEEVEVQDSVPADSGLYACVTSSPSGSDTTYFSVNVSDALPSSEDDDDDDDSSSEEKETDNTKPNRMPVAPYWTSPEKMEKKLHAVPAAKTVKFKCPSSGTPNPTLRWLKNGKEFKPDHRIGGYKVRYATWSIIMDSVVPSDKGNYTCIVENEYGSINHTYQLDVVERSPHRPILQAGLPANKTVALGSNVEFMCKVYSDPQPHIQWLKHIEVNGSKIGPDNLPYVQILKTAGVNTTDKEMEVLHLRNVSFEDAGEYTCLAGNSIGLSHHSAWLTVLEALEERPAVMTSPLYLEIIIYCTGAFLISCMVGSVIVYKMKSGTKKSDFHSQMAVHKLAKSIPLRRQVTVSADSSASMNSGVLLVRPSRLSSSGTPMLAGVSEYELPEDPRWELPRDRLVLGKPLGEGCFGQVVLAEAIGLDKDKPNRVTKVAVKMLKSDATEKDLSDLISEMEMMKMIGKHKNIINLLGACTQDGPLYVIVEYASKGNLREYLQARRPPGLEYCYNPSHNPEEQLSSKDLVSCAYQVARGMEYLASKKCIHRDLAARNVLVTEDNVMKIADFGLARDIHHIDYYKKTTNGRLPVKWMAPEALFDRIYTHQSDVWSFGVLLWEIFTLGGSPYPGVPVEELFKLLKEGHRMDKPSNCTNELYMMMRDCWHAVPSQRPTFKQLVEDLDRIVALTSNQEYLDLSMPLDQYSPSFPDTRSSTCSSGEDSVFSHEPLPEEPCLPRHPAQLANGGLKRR
Chain of ABL1 (P00519 whole entry): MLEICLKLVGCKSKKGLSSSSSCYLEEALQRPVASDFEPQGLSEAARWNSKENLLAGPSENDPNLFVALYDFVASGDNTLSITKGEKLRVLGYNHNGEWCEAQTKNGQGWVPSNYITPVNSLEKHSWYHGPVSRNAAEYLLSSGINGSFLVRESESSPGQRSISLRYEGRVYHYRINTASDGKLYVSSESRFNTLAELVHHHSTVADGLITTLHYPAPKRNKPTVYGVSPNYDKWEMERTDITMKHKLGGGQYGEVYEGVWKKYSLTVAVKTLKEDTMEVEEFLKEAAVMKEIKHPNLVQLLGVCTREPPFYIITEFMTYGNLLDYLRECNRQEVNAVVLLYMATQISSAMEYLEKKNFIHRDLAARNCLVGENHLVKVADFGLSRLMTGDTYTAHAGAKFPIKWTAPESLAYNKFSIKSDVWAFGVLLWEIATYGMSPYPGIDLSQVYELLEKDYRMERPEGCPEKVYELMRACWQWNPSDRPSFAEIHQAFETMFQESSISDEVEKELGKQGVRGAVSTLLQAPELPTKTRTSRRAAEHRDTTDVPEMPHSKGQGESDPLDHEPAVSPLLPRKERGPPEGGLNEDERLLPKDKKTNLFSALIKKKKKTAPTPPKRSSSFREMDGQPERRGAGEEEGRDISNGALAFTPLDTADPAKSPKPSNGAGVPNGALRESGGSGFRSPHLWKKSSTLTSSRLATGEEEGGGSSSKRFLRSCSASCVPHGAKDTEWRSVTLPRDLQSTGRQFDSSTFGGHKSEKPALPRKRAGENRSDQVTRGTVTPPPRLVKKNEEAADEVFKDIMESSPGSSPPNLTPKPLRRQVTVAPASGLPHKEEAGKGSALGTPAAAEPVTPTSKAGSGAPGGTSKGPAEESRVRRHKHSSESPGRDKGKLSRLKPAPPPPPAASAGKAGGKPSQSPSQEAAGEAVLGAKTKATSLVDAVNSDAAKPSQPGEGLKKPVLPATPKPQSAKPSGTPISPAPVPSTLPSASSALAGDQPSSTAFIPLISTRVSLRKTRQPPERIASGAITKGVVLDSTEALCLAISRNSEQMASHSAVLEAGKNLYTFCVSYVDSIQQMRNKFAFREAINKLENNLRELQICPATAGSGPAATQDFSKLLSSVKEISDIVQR

Compound	inhibition at 10 µM (AURKA (Aurora A); [1]) [%]	inhibition at 10 µM (AURKA (Aurora A); read-out: % Inhibition mean) [%]	inhibition at 10 µM (FGFR1; [2]) [%]	inhibition at 10 µM (FGFR1; read-out: % Inhibition mean) [%]	inhibition at 10 µM (ABL1; [3]) [%]	inhibition at 10 µM (ABL1; read-out: % Inhibition mean) [%]	inhibition at 10 µM (AURKA (Aurora A); [4]) [%]	inhibition at 10 µM (FGFR1; [5]) [%]	inhibition at 10 µM (ABL1; [6]) [%]
CC1(C)C(=O)Nc2ccc(Nc3nc4c(-c5cccc(F)c5)cccn4n3)cc21 [Cpd. 263 in WO09155551, reference compound]	> 80	99	> 80	99	> 80	99	–	–	–
Cc1cc(F)ccc1-c1cccn2nc(NC3CCc4c(cnn4C(C)C)C3)nc12 (stereo not drawn) [Example 44, [8-(4-fluoro-2-methyl-phenyl)-[1,2,4]triazolo[1,5-a]pyridine-2-yl]-(1-isopropyl-4,5,6,7-tetrahydro-1H-indazol-5-yl)-amine]	< 40	–	< 40	–	< 40	–	7	20	13
CCn1nnc2c1CCC(Nc1nc3c(-c4ccc(F)cc4C)cccn3n1)C2 (stereo not drawn) [Example 51, (1-Ethyl-4,5,6,7-tetrahydro-1H-benzotriazol-5-yl)-[8-(4-fluoro-2-methyl-phenyl)-[1,2,4]triazolo[1,5-a]pyridine-2-yl]-amine]	< 40	–	< 40	–	< 40	–	8	5	6
CC1(C)NC(=O)c2ccc(Nc3nc4c(-c5cccc(F)c5)cccn4n3)cc21 [Cpd. 302 in WO09155551, reference compound]	> 80	98	> 80	97	> 80	104	–	–	–
Cc1cc(F)ccc1-c1cccn2nc(NC3CCc4c(cnn4CC(C)C)C3)nc12 (stereo not drawn) [Example 45, [8-(4-fluoro-2-methyl-phenyl)-[1,2,4]triazolo[1,5-a]pyridine-2-yl]-(1-isobutyl-4,5,6,7-tetrahydro-1H-indazol-5-yl)-amine]	< 40	–	< 40	–	< 40	–	-13	9	24
CCn1ncc2c1CCC(Nc1nc3c(-c4ccc(F)cc4C)cccn3n1)C2 (stereo not drawn) [Example 42, (1-Ethyl-4,5,6,7-tetrahydro-1H-indazol-5-yl)-[8-(4-fluoro-2-methyl-phenyl)-[1,2,4]triazolo[1,5-a]pyridine-2-yl]-amine]	< 40	–	< 40	–	< 40	–	-2	16	19
CCc1nn(C)c2c1CCC(Nc1nc3c(-c4ccc(F)cc4C)cccn3n1)C2 (stereo not drawn) [Example 54, (3-Ethyl-1-methyl-4,5,6,7-tetrahydro-1H-indazol-6-yl)-[8-(4-fluoro-2-methyl-phenyl)-[1,2,4]triazolo[1,5-a]pyridine-2-yl]-amine]	< 40	–	< 40	–	< 40	–	18	-3	12

Other lines, results leading:

inhibition at 10 µM (AURKA (Aurora A); [1]) [%]	inhibition at 10 µM (AURKA (Aurora A); read-out: % Inhibition mean) [%]	inhibition at 10 µM (FGFR1; [2]) [%]	inhibition at 10 µM (FGFR1; read-out: % Inhibition mean) [%]	inhibition at 10 µM (ABL1; [3]) [%]	inhibition at 10 µM (ABL1; read-out: % Inhibition mean) [%]	inhibition at 10 µM (AURKA (Aurora A); [4]) [%]	inhibition at 10 µM (FGFR1; [5]) [%]	inhibition at 10 µM (ABL1; [6]) [%]	Compound
< 40	–	< 40	–	< 40	–	25	20	13	CCn1ncc2c1CCC(Nc1nc3c(-c4cccnc4OC)cccn3n1)C2 (stereo not drawn) [Example 69, (1-Ethyl-4,5,6,7-tetrahydro-1H-indazol-5-yl)-[8-(2-methoxy-pyridin-3-yl)-[1,2,4]triazolo[1,5-a]pyridine-2-yl]-amine]
> 80	–	< 40	–	< 40	–	85	32	21	CCn1ncc2c1CCC(Nc1nc3c(-c4cncc(Cl)c4)cccn3n1)C2 (stereo not drawn) [Example 73, [8-(5-Chloro-pyridin-3-yl)-[1,2,4]triazolo[1,5-a]pyridine-2-yl]-(1-ethyl-4,5,6,7-tetrahydro-1H-indazol-5-yl)-amine]
< 40	–	< 40	–	< 40	–	7	23	11	CCn1ncc2c1CCC(Nc1nc3c(-c4ccccc4)cccn3n1)C2 (stereo not drawn) [Example 57, (1-Ethyl-4,5,6,7-tetrahydro-1H-indazol-5-yl)-(8-phenyl-[1,2,4]triazolo[1,5-a]pyridine-2-yl)-amine]
< 40	–	< 40	–	< 40	–	-21	13	13	CCn1ncc2c1CC[C@H](Nc1nc3c(-c4ccc(F)c(Cl)c4)cccn3n1)C2 [Example S-61, (S)-[8-(3-Chloro-4-fluoro-phenyl)-[1,2,4]triazolo[1,5-a]pyridine-2-yl]-(1-ethyl-4,5,6,7-tetrahydro-1H-indazol-5-yl)-amine]
< 40	–	< 40	–	< 40	–	-8	15	3	CCn1ncc2c1CC[C@@H](Nc1nc3c(-c4ccc(F)c(Cl)c4)cccn3n1)C2 [Example R-61, (R)-[8-(3-Chloro-4-fluoro-phenyl)-[1,2,4]triazolo[1,5-a]pyridine-2-yl]-(1-ethyl-4,5,6,7-tetrahydro-1H-indazol-5-yl)-amine]
< 40	–	< 40	–	< 40	–	29	18	15	CCn1ncc2c1CCC(Nc1nc3c(-c4cccnc4)cccn3n1)C2 (stereo not drawn) [Example 63, (1-Ethyl-4,5,6,7-tetrahydro-1H-indazol-5-yl)-(8-pyridin-3-yl-[1,2,4]triazolo[1,5-a]pyridine-2-yl)-amine]

From patent US11339161B2, “Triazolo pyridines as modulators of gamma-secretase” (Boehringer Ingelheim International GmbH, priority 2017, dated 2022)
